# Assay results from patent publication US20230312587A1, “PTERIDINONE COMPOUNDS AND USES THEREOF” (Vertex Pharmaceutical Incorporated, priority 2018, published 2023).
# Tested on: β-catenin-TCF-mediated reporter transcription activity in Colo 205 cells
# Assay: Colo 205 reporter assay (TCF/LEF luciferase)
# Type: cell-based
# Conditions: Homo sapiens, 5 h; Colo 205 TCF/LEF luciferase reporter, five hours after addition of compound; read-out: TCF reporter Colo205 IC50
# How it was run: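 Luciferase signal from a TCF/LEF-driven reporter, stably integrated in Colo 205 colon cancer cells, was measured 5 h after compound addition.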
row,SMILES,IC50 [nM]
1,"Cc1nc(N[C@H]2C[C@H](NC(=O)Oc3cc(F)c(F)c(F)c3)C2)nc2c1NC(=O)[C@H](C)N2C [Compound 483, 3,4,5-trifluorophenyl (trans-3-(((S)-4,7,8-trimethyl-6-oxo-5,6,7,8-tetrahydropteridin-2-yl)amino)cyclobutyl)carbamate]",1000 to 5000
2,"Cc1nc(N[C@H]2C[C@@H](NC(=O)Oc3cc(F)c(F)c(F)c3)C2)nc2c1NC(=O)[C@H](C)N2C [Compound 484, 3,4,5-trifluorophenyl (cis-3-(((S)-4,7,8-trimethyl-6-oxo-5,6,7,8-tetrahydropteridin-2-yl)amino)cyclobutyl)carbamate]",1000 to 5000

# Same assay, conditions: Homo sapiens, COLO 205, 5 h, Colo 205 TCF/LEF luciferase reporter, five hours after addition of compound; read-out: TCF reporter Colo205 IC50
row,SMILES,IC50 [nM]
1,"Cc1nc(N[C@H]2C[C@H](NC(=O)Nc3ccc(C(F)(F)F)nc3)C2)nc2c1NC(=O)[C@H](C)N2C [Compound 471, 1-(6-(trifluoromethyl)pyridin-3-yl)-3-(trans-3-(((S)-4,7,8-trimethyl-6-oxo-5,6,7,8-tetrahydropteridin-2-yl)amino)cyclobutyl)urea]",≥ 5000
2,"Cc1nc(N[C@H]2C[C@H](NC(=O)c3cc(F)c(F)c(F)c3)C2)nc2c1NC(=O)[C@H](C)N2C [Compound 476, 3,4,5-trifluoro-N-(trans-3-(((S)-4,7,8-trimethyl-6-oxo-5,6,7,8-tetrahydropteridin-2-yl)amino)cyclobutyl)benzamide]",1000 to 5000
3,"Cc1nc(N[C@H]2C[C@H](NC(=O)Nc3cc(F)c(F)cc3F)C2)nc2c1NC(=O)[C@H](C)N2C [Compound 478, 1-(2,4,5-trifluorophenyl)-3-(trans-3-(((S)-4,7,8-trimethyl-6-oxo-5,6,7,8-tetrahydropteridin-2-yl)amino)cyclobutyl)urea]",1000 to 5000
4,"Cc1nc(N[C@H]2C[C@H](NS(=O)(=O)c3cc(F)c(F)c(F)c3)C2)nc2c1NC(=O)[C@H](C)N2C [Compound 482, 3,4,5-trifluoro-N-(trans-3-(((S)-4,7,8-trimethyl-6-oxo-5,6,7,8-tetrahydropteridin-2-yl)amino)cyclobutyl)benzenesulfonamide]",≥ 5000
5,"Cc1nc(N[C@H]2C[C@H](Nc3cc(F)c(F)c(F)c3)C2)nc2c1NC(=O)[C@H](C)N2C [Compound 486, (S)-4,7,8-trimethyl-2-((trans-3-((3,4,5-trifluorophenyl)amino)cyclobutyl)amino)-7,8-dihydropteridin-6(5H)-one]",1000 to 5000
6,"COc1c(F)cc(Cn2cnc(CNc3nc(C)c4c(n3)N(C)[C@@H](C(C)C)C(=O)N4)n2)cc1F [Compound 488, (S)-2-(((1-(3,5-difluoro-4-methoxybenzyl)-1H-1,2,4-triazol-3-yl)methyl)amino)-7-isopropyl-4,8-dimethyl-7,8-dihydropteridin-6(5H)-one]",1000 to 5000
7,"Cc1nc(NCc2ncn(Cc3ccc(OC(F)(F)F)cc3)n2)nc2c1NC(=O)[C@H](C(C)C)N2C [Compound 489, (S)-7-isopropyl-4,8-dimethyl-2-(((1-(4-(trifluoromethoxy)benzyl)-1H-1,2,4-triazol-3-yl)methyl)amino)-7,8-dihydropteridin-6(5H)-one]",≥ 5000

# Now from value to compound:
row,IC50 [nM],SMILES
1,< 300,"Cc1nc(NCc2cnn(-c3ccc(C(F)(F)F)nc3)c2)nc2c1NC(=O)[C@H](C)N2C [Compound 468, (S)-4,7,8-trimethyl-2-(((1-(6-(trifluoromethyl)pyridin-3-yl)-1H-pyrazol-4-yl)methyl)amino)-7,8-dihydropteridin-6(5H)-one]"
2,< 300,"Cc1nc(NCc2cnn(Cc3ccc(C(C)(C)C)nc3)c2)nc2c1NC(=O)[C@H](C(C)C)N2C [Compound 469, (S)-2-(((1-((6-(tert-butyl)pyridin-3-yl)methyl)-1H-pyrazol-4-yl)methyl)amino)-7-isopropyl-4,8-dimethyl-7,8-dihydropteridin-6(5H)-one]"
3,< 300,"Cc1nc(NCc2cnn(Cc3ccc(C(C)(C)C#N)nc3)c2)nc2c1NC(=O)[C@H](C(C)C)N2C [Compound 470, (S)-2-(5-((4-(((7-isopropyl-4,8-dimethyl-6-oxo-5,6,7,8-tetrahydropteridin-2-yl)amino)methyl)-1H-pyrazol-1-yl)methyl)pyridin-2-yl)-2-methylpropanenitrile]"
4,< 300,"Cc1nc(N[C@H]2C[C@@H](NC(=O)Nc3cc(F)c(F)c(F)c3)C2)nc2c1NC(=O)[C@H](C)N2C [Compound 472, 1-(3,4,5-trifluorophenyl)-3-(cis-3-(((S)-4,7,8-trimethyl-6-oxo-5,6,7,8-tetrahydropteridin-2-yl)amino)cyclobutyl)urea]"
5,< 300,"Cc1nc(N[C@H]2C[C@@H](NC(=O)Nc3ccc(C(F)(F)F)nc3)C2)nc2c1NC(=O)[C@H](C)N2C [Compound 473, 1-(6-(trifluoromethyl)pyridin-3-yl)-3-(cis-3-(((S)-4,7,8-trimethyl-6-oxo-5,6,7,8-tetrahydropteridin-2-yl)amino)cyclobutyl)urea]"
6,1000 to 5000,"Cc1nc(N[C@H]2C[C@H](NC(=O)Nc3cc(F)c(F)c(F)c3)C2)nc2c1NC(=O)[C@H](C)N2C [Compound 474, 1-(3,4,5-trifluorophenyl)-3-(trans-3-(((S)-4,7,8-trimethyl-6-oxo-5,6,7,8-tetrahydropteridin-2-yl)amino)cyclobutyl)urea]"
7,1000 to 5000,"Cc1nc(N[C@H]2C[C@@H](NC(=O)c3cc(F)c(F)c(F)c3)C2)nc2c1NC(=O)[C@H](C)N2C [Compound 475, 3,4,5-trifluoro-N-(cis-3-(((S)-4,7,8-trimethyl-6-oxo-5,6,7,8-tetrahydropteridin-2-yl)amino)cyclobutyl)benzamide]"
8,< 300,"Cc1nc(N[C@H]2C[C@@H](NC(=O)Nc3cc(F)c(F)cc3F)C2)nc2c1NC(=O)[C@H](C)N2C [Compound 477, 1-(2,4,5-trifluorophenyl)-3-(cis-3-(((S)-4,7,8-trimethyl-6-oxo-5,6,7,8-tetrahydropteridin-2-yl)amino)cyclobutyl)urea]"
9,< 300,"Cc1nc(NCc2cnn(Cc3ccc(F)cc3)c2)nc2c1NC(=O)[C@H](C(C)C)N2C [Compound 479, (S)-2-(((1-(4-fluorobenzyl)-1H-pyrazol-4-yl)methyl)amino)-7-isopropyl-4,8-dimethyl-7,8-dihydropteridin-6(5H)-one]"
10,< 300,"C=C(C)c1ccc(Cn2cc(CNc3nc(C)c4c(n3)N(C)[C@@H](C(C)C)C(=O)N4)cn2)cn1 [Compound 480, (S)-7-isopropyl-4,8-dimethyl-2-(((1-((6-(prop-1-en-2-yl)pyridin-3-yl)methyl)-1H-pyrazol-4-yl)methyl)amino)-7,8-dihydropteridin-6(5H)-one]"
11,300 to 1000,"Cc1nc(N[C@H]2C[C@@H](NS(=O)(=O)c3cc(F)c(F)c(F)c3)C2)nc2c1NC(=O)[C@H](C)N2C [Compound 481, 3,4,5-trifluoro-N-(cis-3-(((S)-4,7,8-trimethyl-6-oxo-5,6,7,8-tetrahydropteridin-2-yl)amino)cyclobutyl)benzenesulfonamide]"
12,< 300,"Cc1nc(N[C@H]2C[C@@H](Nc3cc(F)c(F)c(F)c3)C2)nc2c1NC(=O)[C@H](C)N2C [Compound 485, (S)-4,7,8-trimethyl-2-((cis-3-((3,4,5-trifluorophenyl)amino)cyclobutyl)amino)-7,8-dihydropteridin-6(5H)-one]"
13,300 to 1000,"C[C@H]1C(=O)Nc2c(CO)nc(NCc3cnn(Cc4ccc(C(F)(F)F)nc4)c3)nc2N1C [Compound 487, (7S)-4-(hydroxymethyl)-7,8-dimethyl-2-(((1-((6-(trifluoromethyl)pyridin-3-yl)methyl)-1H-pyrazol-4-yl)methyl)amino)-7,8-dihydropteridin-6(5H)-one]"
